In US20090042835A1, “COMPOSITIONS AND METHODS FOR AMELIORATING HYPERLIPIDEMIA” (priority 2006, published 2009):
One block for each molecule: values may come before it.

Tests used:
[1] = molecular target: T1, L-FABP (Homo sapiens, UniProt P07148); assay: 1,8-ANS binding to FABP (direct binding isotherms)
T1 sequence (P07148 1-127): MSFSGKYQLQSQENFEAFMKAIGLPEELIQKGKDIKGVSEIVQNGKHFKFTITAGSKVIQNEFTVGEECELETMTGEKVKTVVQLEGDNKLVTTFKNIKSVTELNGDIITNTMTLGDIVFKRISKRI
Description: The pharmaceutical compound may be formulated using any small molecule that is capable of inhibiting L-FABP and which is pharmaceutically acceptable. One non-limiting example of a suitable L-FABP inhibitor is 3-(decyldimethylsilyl)-N-[2-(4-methylphenyl)-1-phenylethyl]propanamide (Sandoz compound 58-035) (lot #fr. 09061988), In some embodiments, such L-FABP inhibitors are identified using a screening assay. […] Suitable in vitro assays for testing L-FABP include, but are not limited to a high throughput L-FABP assay based on the 1,8-ANS binding assay (see: Kane, C. D., and Bernlohr, D. A. 1996, A simple assay for intracellular lipid-binding proteins using displacement of 1-anilinonaphthalene 8-sulfonic acid. Anal Biochem 233:197-204.) In this assay, recombinant L-FABP is incubated with a fluorescent surrogate ligand, 1-anilinonapthalene 8-sulfonic acid (ANS) and allowed to come to equilibrium. 1,8-ANS is non-fluorescent in solution but is highly fluorescent when bound in the hydrophobic, lipid-binding pocket of the fatty acid binding proteins. […] Chemical compounds in pools of 5 were added to each well and the fluorescence re-measured. […] In tertiary screens, the primary targets will be titrated into the FABP bound with 1,8-ANS and the displacement quantitated as a function of ligand concentration.

[2] = tested on: PPARα−/− mice; assay: PPARα agonist GW-7647 feeding, hepatic mRNA, PPARα−/− mice; format: in vivo; details: 2.5 mg/kg/d in chow, 7 weeks
Description: (§1) Animal Studies. Male PPARα−/− mice and age matched WT littermates (on SV/129 background) were fed a standard chow diet, supplemented with either the PPARα agonist GW-7647 (2.5 mg/kg/d) or equivalent amount of solvent vehicle (DMSO), for 7 weeks. All animals had ad libitum access to water. Mice were weighed every 2 weeks and drug intake was adjusted according to mean weight. Upon end of treatment animals were sacrificed, liver was isolated, and total RNA was extracted using Versagene RNA Tissue Kit (Gentra Systems, Inc.). First-Strand cDNA synthesis and Real Time PCR expression analyses were performed as described above.

[3] = tested on: control mice; assay: PPARα agonist GW-7647 feeding, hepatic mRNA, control mice; format: in vivo; details: 2.5 mg/kg/d in chow, 7 weeks
Description: as §1

[4] = molecular target: T1, L-FABP; details: cited from earlier work
[5] = molecular target: T2, PPARα (rat, UniProt P37230 1-468); assay: inferred from EMSA supershift of the same FAO-specific DNA-protein complex with anti-RXRα and anti-PPARα antibodies
T2 construct: Nuclear receptor; It was present in a crude nuclear extract, not purified; also called PPAR alpha
T2 sequence (looked up): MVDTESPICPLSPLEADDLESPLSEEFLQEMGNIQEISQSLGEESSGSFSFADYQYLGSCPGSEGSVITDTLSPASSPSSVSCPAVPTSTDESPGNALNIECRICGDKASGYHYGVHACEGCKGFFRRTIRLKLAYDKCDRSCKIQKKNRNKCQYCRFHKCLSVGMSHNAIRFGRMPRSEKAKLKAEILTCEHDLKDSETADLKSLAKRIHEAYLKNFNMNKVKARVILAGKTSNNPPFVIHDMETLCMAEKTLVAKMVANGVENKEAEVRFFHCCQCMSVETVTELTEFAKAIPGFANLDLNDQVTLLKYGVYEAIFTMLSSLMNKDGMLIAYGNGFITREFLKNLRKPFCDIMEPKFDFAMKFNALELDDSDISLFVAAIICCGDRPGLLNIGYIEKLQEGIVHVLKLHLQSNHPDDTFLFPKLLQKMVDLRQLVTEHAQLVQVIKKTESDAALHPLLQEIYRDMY
Description: The probes were prepared by annealing the complementary oligonucleotides and by end labeling with [γ-³²P]ATP ([…]), PerkinElmer Life Sciences) using T4 polynucleotide kinase (New England Biolabs), followed by purification on a G50 column. For binding reactions, 15 μg of nuclear extracts were incubated with 3×10^4 cpm probe on ice for 20 min in a total volume of 15 μl of solution (20 mM HEPES, pH7.9 at 4° C., 10% glycerol, 100 mM KCl, 1 mM EDTA, and 2 μg poly(dI-dC). For supershift experiments, 1 μl of specific antibodies were added to preincubated DNA-protein complexes for an additional 20 min on ice. Antibodies against COUP-TFII (sc-6576X), RXRα (sc-553X), and PPARα (sc-9000X) were obtained from Santa Cruz Biotechnology, Inc. DNA-protein complexes were resolved on 4% native polyacrylamide gel electrophoresis containing 0.5×TBE buffer.
PPARα-RXRα heterodimers compete with COUP-TFII for binding to the DR1 promoter elements of both the MTP and L-FABP genes. […] In contrast, PPARα-RXRα supershifts were not detected with the nuclear extracts obtained from L35 cells ((4)). These Findings indicate that in FAO cells, the DR1 sites of both the L-FABP and MTP promoters are occupied by PPARα-RXRα heterodimers while these same sites are occupied by a COUP-TFII complex in L35 cells.

- Kd [1]: 1500 nM
Molecule: O=S(=O)(O)c1cccc2cccc(Nc3ccccc3)c12 [1,8-ANS, 1-anilinonapthalene 8-sulfonic acid]

Molecule: CC(C)(Sc1ccc(CCN(CCCCC2CCCCC2)C(=O)NC2CCCCC2)cc1)C(=O)O [GW-7647]
- hepatic L-FABP expression level [2]: no significant changes
- hepatic MTP expression level [2]: no significant changes
- hepatic L-FABP mRNA level [3]: increased levels
- hepatic MTP mRNA level [3]: increased levels

Molecule: CCCCCCCCCC[Si](C)(C)CCC(=O)NC(Cc1ccc(C)cc1)c1ccccc1 (stereo not shown) [Sandoz compound 58-035, 3-(decyldimethylsilyl)-N-[2-(4-methylphenyl)-1-phenylethyl]propanamide]
- inhibition of L-FABP [4]: inhibit L-FABP

- binding result [5]: binds
B1: RXRα (receptor, rat, UniProt Q05343 1-467, looked up)
chain: MDTKHFLPLDFSTQVNSSSLSSPTGRGSMAAPSLHPSLGPGLGSPLGSPGQLHSPISTLSSPINGMGPPFSVISSPMGPHSMSVPTTPTLGFETGSPQLNSPMNPVSSSEDIKPPLGLNGVLKVPAHPSGNMSSFTKHICAICGDRSSGKHYGVYSCEGCKGFFKRTVRKDLTYTCRDNKDCLIDKRQRNRCQYCRYQKCLAMGMKREAVQEERQRGKDRNENEVESTSSANEDMPVEKILEAELAVEPKTETYVEANMGLNPSSPNDPVTNICQAADKQLFTLVEWAKRIPHFSELPLDDQVILLRAGWNELLIASFSHRSIAVKDGILLATGLHVHRNSAHSAGVGAIFDRVLTELVSKMRDMQMDKTELGCLRAIVLFNPDSKGLSNPAEVEALREKVYASLEAYCKHKYPEQPGRFAKLLLRLPALRSIGLKCLEHLFFFKLIGDTPIDTFLMEMLEAPHQTT
notes: Nuclear receptor; It was present in a crude nuclear extract, not purified; also called RXR alpha
